The record followed here is ChEMBL document CHEMBL1641539 (Bioorg Med Chem Lett, 2011).

Experiment [1] concerns the target Tyrosine-protein kinase Fes/Fps (Homo sapiens) (UniProt P07332). The experiment is described as follows: Inhibition of human Fes at 10 uM after 60 mins by TR-FRET assay; values are per cent of control. Background: TR-FRET usually uses a lanthanide donor and a delayed reading to cut background.
The target of experiment [2] is Protein kinase C theta type (Homo sapiens) (UniProt Q04759). The experiment can be described thus: Inhibition of human PKCtheta at 10 uM after 60 mins by TR-FRET assay; values are per cent of control.
Experiment [3] deals with T1, Serine/threonine-protein kinase Chk1 (Homo sapiens) (UniProt O14757).
T1 sequence (whole entry): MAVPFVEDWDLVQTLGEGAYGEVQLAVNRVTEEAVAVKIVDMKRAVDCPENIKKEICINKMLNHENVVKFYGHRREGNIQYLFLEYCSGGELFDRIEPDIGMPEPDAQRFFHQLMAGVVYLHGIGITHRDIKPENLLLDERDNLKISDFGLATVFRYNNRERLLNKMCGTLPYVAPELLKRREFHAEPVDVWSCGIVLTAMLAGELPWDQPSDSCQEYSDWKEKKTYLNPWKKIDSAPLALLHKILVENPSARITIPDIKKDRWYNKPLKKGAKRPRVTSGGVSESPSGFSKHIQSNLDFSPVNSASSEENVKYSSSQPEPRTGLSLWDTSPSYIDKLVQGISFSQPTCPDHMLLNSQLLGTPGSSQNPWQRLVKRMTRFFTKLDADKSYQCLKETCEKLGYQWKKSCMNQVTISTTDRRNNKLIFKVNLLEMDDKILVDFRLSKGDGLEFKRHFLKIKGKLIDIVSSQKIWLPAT
The experiment can be described thus: Inhibition of human CHK1 at 10 uM after 60 mins by TR-FRET assay; values are per cent of control.

The target in experiment [4] is Homeodomain-interacting protein kinase 1 (Homo sapiens) (UniProt Q86Z02). The experiment is described as follows: Inhibition of human HIPK1 at 10 uM after 60 mins by TR-FRET assay; values are per cent of control.
Experiment [5] deals with Receptor-type tyrosine-protein kinase FLT3 (Homo sapiens) (UniProt P36888). The experiment can be described thus: Inhibition of human Flt3 at 10 uM after 60 mins by TR-FRET assay; values are per cent of control.
In experiment [6] the target is Insulin-like growth factor 1 receptor (Homo sapiens) (UniProt P08069). The experiment is described as follows: Inhibition of human IGF-1R at 10 uM after 60 mins by TR-FRET assay; values are per cent of control.
Experiment [7] deals with Activin receptor type-1B (Homo sapiens) (UniProt P36896). The experiment is described as follows: Inhibition of human ALK4 at 10 uM after 60 mins by TR-FRET assay; values are per cent of control.
In experiment [8] the target is Serine/threonine-protein kinase pim-3 (Homo sapiens) (UniProt Q86V86). The experiment is described as follows: Inhibition of human Pim-3 at 10 uM after 60 mins by TR-FRET assay; values are per cent of control.
Experiment [9] deals with Tyrosine-protein kinase Fgr (Homo sapiens) (UniProt P09769). The experiment is described as follows: Inhibition of human Fgr at 10 uM after 60 mins by TR-FRET assay; values are per cent of control.
Chain of Tyrosine-protein kinase Fgr (Homo sapiens) (P09769 2-529 limits assumed): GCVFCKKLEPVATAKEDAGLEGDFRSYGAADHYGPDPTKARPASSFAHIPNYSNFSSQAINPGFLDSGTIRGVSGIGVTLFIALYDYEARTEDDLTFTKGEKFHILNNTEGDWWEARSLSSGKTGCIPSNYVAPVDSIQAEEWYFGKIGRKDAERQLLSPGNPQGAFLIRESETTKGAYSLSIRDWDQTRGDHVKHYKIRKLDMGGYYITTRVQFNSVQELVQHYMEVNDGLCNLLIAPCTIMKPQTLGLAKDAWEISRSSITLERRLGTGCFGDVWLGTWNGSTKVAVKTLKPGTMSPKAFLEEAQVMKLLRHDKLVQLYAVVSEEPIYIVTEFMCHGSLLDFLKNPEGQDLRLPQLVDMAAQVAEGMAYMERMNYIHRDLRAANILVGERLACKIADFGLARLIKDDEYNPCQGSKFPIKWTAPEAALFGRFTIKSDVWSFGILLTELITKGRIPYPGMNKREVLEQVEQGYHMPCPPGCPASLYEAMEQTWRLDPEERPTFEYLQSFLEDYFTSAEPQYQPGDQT
Experiment [10] addresses Ribosomal protein S6 kinase alpha-3 (Homo sapiens) (UniProt P51812). The experiment is described as follows: Inhibition of human Rsk2 at 10 uM after 60 mins by TR-FRET assay. The following applies: values are per cent of control.
The target of experiment [11] is Tyrosine-protein kinase BTK (Homo sapiens) (UniProt Q06187). The experiment is described as follows: Inhibition of human BTK at 10 uM after 60 mins by TR-FRET assay; values are per cent of control.
The target in experiment [12] is Rho-associated protein kinase 1 (Homo sapiens) (UniProt Q13464). The experiment is described as follows: Inhibition of human ROCK-1 at 10 uM after 60 mins by TR-FRET assay; values are per cent of control.
Chain of Rho-associated protein kinase 1 (Homo sapiens) (Q13464 2-1354 limits assumed): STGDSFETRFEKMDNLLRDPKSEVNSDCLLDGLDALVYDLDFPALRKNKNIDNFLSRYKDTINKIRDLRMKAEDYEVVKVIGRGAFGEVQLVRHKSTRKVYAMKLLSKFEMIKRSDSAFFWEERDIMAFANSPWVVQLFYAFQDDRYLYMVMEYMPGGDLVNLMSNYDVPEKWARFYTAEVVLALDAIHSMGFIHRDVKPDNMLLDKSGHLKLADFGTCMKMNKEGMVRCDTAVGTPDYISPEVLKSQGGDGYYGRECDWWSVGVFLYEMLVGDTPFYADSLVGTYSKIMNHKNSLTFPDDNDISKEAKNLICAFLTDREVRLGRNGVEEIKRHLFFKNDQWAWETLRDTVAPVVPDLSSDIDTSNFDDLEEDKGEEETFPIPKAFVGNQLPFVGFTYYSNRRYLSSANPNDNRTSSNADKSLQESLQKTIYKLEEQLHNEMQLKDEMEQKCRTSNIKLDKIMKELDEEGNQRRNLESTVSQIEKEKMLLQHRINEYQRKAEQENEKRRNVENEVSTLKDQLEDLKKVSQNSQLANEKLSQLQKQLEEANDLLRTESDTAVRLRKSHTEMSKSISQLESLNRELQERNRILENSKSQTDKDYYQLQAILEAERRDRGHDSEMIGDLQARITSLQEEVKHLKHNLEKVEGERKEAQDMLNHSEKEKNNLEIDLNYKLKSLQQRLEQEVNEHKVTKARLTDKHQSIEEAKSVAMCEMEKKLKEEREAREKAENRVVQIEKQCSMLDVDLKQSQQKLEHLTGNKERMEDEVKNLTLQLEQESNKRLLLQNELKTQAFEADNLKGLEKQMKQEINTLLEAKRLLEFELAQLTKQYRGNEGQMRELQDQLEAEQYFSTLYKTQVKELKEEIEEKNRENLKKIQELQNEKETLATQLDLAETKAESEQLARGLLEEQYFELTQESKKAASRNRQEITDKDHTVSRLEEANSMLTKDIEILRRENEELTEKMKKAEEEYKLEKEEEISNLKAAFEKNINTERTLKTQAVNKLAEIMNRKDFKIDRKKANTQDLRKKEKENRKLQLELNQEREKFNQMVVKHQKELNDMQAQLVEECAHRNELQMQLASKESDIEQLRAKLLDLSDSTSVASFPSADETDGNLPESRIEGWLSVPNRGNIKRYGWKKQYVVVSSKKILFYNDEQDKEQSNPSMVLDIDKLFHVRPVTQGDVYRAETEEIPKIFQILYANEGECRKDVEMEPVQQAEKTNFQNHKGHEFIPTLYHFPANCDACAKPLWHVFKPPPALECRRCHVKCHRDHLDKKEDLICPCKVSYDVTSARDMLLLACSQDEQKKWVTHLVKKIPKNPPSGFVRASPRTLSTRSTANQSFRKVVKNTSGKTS
Experiment [13] has as its target Fibroblast growth factor receptor 2 (Homo sapiens) (UniProt P21802). The experiment can be described thus: Inhibition of human FGFR2 at 10 uM after 60 mins by TR-FRET assay; values are per cent of control.
Experiment [14] addresses Protein kinase C beta type (Homo sapiens) (UniProt P05771). The experiment can be described thus: Inhibition of human PKCbeta2 at 10 uM after 60 mins by TR-FRET assay; values are per cent of control.
The target of experiment [15] is G protein-coupled receptor kinase 6 (Homo sapiens) (UniProt P43250). The experiment can be described thus: Inhibition of human GRK6 at 10 uM after 60 mins by TR-FRET assay; values are per cent of control.
In experiment [16] the target is Casein kinase I isoform delta (Homo sapiens) (UniProt P48730). The experiment is described as follows: Inhibition of human CK1d at 10 uM after 60 mins by TR-FRET assay; values are per cent of control.
Experiment [17] addresses Serine/threonine-protein kinase PAK 5 (Homo sapiens) (UniProt Q9P286). The experiment can be described thus: Inhibition of human PAK5 at 10 uM after 60 mins by TR-FRET assay; values are per cent of control.
Experiment [18] deals with Macrophage colony-stimulating factor 1 receptor (Homo sapiens) (UniProt P07333). The experiment can be described thus: Inhibition of human Fms at 10 uM after 60 mins by TR-FRET assay; values are per cent of control.
Experiment [19] concerns the target Serine/threonine-protein kinase TAO2 (Homo sapiens) (UniProt Q9UL54). The experiment is described as follows: Inhibition of human TAO2 at 10 uM after 60 mins by TR-FRET assay; values are per cent of control.
Experiment [20] deals with Receptor-interacting serine/threonine-protein kinase 2 (Homo sapiens) (UniProt O43353). The experiment can be described thus: Inhibition of human RIPK2 at 10 uM after 60 mins by TR-FRET assay; values are per cent of control.
Experiment [21] deals with Tyrosine-protein kinase Fyn (Homo sapiens) (UniProt P06241). The experiment can be described thus: Inhibition of human Fyn at 10 uM after 60 mins by TR-FRET assay. The following applies: values are per cent of control.
The subject of experiment [22] is Mast/stem cell growth factor receptor Kit (Homo sapiens), P10721 [D816V]. The experiment is described as follows: Inhibition of human c-Kit D816V mutant at 10 uM after 60 mins by TR-FRET assay; values are per cent of control.
For experiment [23], the target named is Glycogen synthase kinase-3 alpha (Homo sapiens) (UniProt P49840). The experiment can be described thus: Inhibition of human GSK3alpha at 10 uM after 60 mins by TR-FRET assay; values are per cent of control.
Chain of Glycogen synthase kinase-3 alpha (Homo sapiens) (P49840 2-483 limits assumed): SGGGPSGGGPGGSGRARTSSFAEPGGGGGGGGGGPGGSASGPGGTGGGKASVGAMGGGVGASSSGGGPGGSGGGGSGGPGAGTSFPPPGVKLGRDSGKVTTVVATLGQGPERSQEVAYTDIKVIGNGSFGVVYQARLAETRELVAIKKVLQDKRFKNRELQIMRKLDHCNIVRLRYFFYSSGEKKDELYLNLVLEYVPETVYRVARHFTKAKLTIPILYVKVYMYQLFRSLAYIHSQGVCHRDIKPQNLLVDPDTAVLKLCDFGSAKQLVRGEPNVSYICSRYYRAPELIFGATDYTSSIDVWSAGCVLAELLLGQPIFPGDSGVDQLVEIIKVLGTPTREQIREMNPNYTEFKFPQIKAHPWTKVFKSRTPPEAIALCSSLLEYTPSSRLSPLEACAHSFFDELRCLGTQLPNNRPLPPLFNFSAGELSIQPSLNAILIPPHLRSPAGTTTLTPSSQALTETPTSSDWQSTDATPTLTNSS
In experiment [24] the target is RAF proto-oncogene serine/threonine-protein kinase (Homo sapiens) (UniProt P04049). The experiment is described as follows: Inhibition of human c-RAF at 10 uM after 60 mins by TR-FRET assay; values are per cent of control.
Chain of RAF proto-oncogene serine/threonine-protein kinase (Homo sapiens) (P04049 whole entry): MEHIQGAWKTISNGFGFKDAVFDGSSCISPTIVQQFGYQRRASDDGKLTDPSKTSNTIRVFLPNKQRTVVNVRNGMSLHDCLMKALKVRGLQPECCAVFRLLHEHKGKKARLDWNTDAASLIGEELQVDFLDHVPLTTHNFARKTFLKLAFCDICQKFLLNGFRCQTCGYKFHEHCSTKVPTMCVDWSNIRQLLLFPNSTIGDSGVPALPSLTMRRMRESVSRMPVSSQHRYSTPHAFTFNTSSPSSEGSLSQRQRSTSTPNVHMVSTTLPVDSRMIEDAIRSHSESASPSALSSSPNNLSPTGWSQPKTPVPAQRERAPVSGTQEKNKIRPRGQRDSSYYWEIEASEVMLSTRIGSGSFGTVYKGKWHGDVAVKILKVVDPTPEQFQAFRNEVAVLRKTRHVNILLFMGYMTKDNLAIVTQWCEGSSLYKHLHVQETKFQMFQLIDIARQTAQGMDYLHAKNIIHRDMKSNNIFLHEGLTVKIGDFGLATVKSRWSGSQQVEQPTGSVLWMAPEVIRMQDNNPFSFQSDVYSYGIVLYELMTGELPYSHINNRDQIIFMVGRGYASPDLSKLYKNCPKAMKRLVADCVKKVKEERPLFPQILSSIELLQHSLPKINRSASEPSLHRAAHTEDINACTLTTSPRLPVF

Molecules are shown by their SMILES.

Chain of Ribosomal protein S6 kinase alpha-3 (Homo sapiens) (P51812 whole entry): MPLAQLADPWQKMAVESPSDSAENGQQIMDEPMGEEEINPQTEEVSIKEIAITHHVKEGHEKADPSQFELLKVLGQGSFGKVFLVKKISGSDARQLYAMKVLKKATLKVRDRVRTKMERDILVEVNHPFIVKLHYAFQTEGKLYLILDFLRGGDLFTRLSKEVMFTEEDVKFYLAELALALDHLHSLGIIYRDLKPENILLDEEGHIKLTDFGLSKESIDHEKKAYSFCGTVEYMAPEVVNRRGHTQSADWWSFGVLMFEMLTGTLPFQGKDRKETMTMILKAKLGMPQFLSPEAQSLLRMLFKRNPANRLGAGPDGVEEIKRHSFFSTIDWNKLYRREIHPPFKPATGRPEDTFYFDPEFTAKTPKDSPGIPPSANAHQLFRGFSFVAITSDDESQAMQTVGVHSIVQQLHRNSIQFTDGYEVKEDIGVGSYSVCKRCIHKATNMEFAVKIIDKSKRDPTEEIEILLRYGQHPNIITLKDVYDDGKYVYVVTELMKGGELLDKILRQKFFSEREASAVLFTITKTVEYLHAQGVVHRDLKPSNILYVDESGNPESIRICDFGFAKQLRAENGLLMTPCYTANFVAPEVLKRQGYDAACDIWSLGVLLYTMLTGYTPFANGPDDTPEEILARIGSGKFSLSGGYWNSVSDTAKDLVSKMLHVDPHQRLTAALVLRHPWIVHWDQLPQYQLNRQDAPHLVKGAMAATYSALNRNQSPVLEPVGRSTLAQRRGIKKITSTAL
Chain of Protein kinase C beta type (Homo sapiens) (P05771 2-671 limits assumed): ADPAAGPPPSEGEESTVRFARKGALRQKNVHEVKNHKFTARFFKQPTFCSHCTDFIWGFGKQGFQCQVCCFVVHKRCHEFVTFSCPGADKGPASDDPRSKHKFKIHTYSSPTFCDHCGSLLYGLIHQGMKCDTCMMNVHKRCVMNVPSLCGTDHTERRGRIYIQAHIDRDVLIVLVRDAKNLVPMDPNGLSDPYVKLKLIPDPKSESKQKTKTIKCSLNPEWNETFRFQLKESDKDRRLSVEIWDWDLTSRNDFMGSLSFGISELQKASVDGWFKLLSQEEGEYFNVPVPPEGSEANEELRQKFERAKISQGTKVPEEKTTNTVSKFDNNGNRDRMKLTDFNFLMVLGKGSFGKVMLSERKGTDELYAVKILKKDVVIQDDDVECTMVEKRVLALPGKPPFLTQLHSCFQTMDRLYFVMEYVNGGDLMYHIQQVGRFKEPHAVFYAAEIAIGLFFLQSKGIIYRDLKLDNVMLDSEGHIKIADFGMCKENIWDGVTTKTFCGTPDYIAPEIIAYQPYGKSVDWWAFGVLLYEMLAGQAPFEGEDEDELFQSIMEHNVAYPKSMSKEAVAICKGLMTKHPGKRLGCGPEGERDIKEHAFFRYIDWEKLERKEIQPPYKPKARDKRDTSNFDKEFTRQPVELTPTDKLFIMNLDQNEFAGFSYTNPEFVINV

Take `S=c1[nH]nc(-c2ccncc2)n1-c1ccc2ccccc2c1`: the residual activity worked out at 97% in [1]; 114% in experiment [2]; 113% in experiment [3]; 110% in experiment [4]; 119% in [5]; 115% in [6]. Further, the residual activity in experiment [7] was determined as 112%; in experiment [8], 99%; in experiment [9] it was 99%; in experiment [10], 98%; in [11], 118%; in [12], 110%. The residual activity in [13] is 92%; in [14] it was 105%; in experiment [15], 108%; in experiment [16] it was 96%; in experiment [17], 101%; in experiment [18], 96%. Moreover, the residual activity in experiment [19] was found to be 103%; in experiment [20], 111%; in [21], 116%; in [22], 113%; in experiment [23], 85%; in experiment [24], 35%.
